Reference: ChEMBL document CHEMBL3046689, “Volatile aldehydes are promising broad-spectrum postharvest insecticides” (J Agric Food Chem, 2000)
Active and inactive are the calls of the source. No cut-off for these calls is given here.

How the values were obtained:
[1] = test system: Lactuca sativa; assay: Phytotoxicity in naked Lactuca sativa (lettuce) assessed as change in visual quality after compound application through two-tier reduced pressure fumigation at 30 mmHg for 0.5 hr and then 760 mmHg for 1.5 hr at 23 +/- 1 degC after 2 hr; format: organism-based; details: in vivo
[2] = test system: Persea americana; assay: Phytotoxicity in Persea americana (avocado) assessed as induction of visual damage after compound application for 1 hr through two-tier reduced pressure fumigation at 30 mmHg for 0.5 hr and then 760 mmHg for 1.5 hr at 23 +/- 1 degC; format: organism-based; details: in vivo
[3] = test system: Citrus limon; assay: Phytotoxicity in Citrus limon (lemon) assessed as induction of olfactory damage after compound application for 1 hr through two-tier reduced pressure fumigation at 30 mmHg for 0.5 hr and then 760 mmHg for 1.5 hr at 23 +/- 1 degC; format: organism-based; details: citrus x limon, in vivo
[4] = test system: Oryza sativa; assay: Phytotoxicity in Oryza sativa (rice) assessed as induction of olfactory damage after compound application for 1 hr through two-tier reduced pressure fumigation at 30 mmHg for 0.5 hr and then 760 mmHg for 1.5 hr at 23 +/- 1 degC; format: organism-based; details: in vivo
[5] = test system: Pseudococcus viburni; assay: Insecticidal activity against Pseudococcus viburni; format: functional, organism-based
[6] = test system: Citrus x paradisi; assay: Phytotoxicity in Citrus x paradisi (grape fruit) assessed as induction of visual damage after compound application for 1 hr through two-tier reduced pressure fumigation at 30 mmHg for 0.5 hr and then 760 mmHg for 1.5 hr at 23 +/- 1 degC; format: organism-based; details: in vivo
[7] = test system: Pseudococcus affinis; assay: Insecticidal activity against Pseudococcus affinis; format: functional, organism-based
[8] = test system: Tetranychus urticae; assay: Insecticidal activity against Tetranychus urticae (two-spotted spider mite); format: functional, organism-based
[9] = test system: Citrus sinensis; assay: Phytotoxicity in Citrus sinensis (orange) assessed as induction of visual damage after compound application for 1 hr through two-tier reduced pressure fumigation at 30 mmHg for 0.5 hr and then 760 mmHg for 1.5 hr at 23 +/- 1 degC; format: organism-based; details: in vivo
[10] = test system: Citrus x paradisi; assay: Phytotoxicity in Citrus x paradisi (grape fruit) assessed as induction of olfactory damage after compound application for 1 hr through two-tier reduced pressure fumigation at 30 mmHg for 0.5 hr and then 760 mmHg for 1.5 hr at 23 +/- 1 degC; format: organism-based; details: in vivo

Q: With CCC=O [PROPIONALDEHYDE] as the molecule, how does the Activity [1] read?
A: Toxic

Q: And the Activity [2]?
A: Non-toxic

Q: What about the Activity [3] of the same molecule?
A: Non-toxic

Q: What about the Activity [4] of the same molecule?
A: Non-toxic

Q: What about the Activity [5] of the same molecule?
A: Active

Q: And the Activity [6]?
A: Non-toxic

Q: And the Activity [7]?
A: Active

Q: And the Activity [8]?
A: inactive

Q: And the Activity [9]?
A: Non-toxic

Q: And the Activity [10]?
A: Non-toxic
